Reference: patent US5278161A, “Amino acid derivatives useful as renin inhibitors” (Hoffmann-La Roche Inc., priority 1990, dated 1994)

Target: T1, human renin (Homo sapiens, UniProt P00797)
T1 sequence (P00797 67-406): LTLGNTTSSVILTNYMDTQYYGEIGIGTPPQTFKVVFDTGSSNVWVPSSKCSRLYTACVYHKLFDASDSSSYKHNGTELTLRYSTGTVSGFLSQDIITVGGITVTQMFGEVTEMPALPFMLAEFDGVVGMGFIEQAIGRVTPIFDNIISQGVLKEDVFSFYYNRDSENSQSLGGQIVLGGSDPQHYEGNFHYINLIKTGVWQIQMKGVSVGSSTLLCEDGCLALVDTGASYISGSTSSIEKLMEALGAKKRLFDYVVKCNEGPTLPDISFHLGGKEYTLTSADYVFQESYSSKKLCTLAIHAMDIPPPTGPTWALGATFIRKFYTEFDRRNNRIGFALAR
Experiment: In vitro test with pure human renin (inhibition of angiotensin I production from human tetradecapeptide renin substrate, RIA)
Type: biochemical
Settings: pH 7.4 buffer, hTD substrate, three hours at 37° C., angiotensin I by RIA
Protocol: IN VITRO TEST WITH PURE HUMAN RENIN
The test is carried out in Eppendorf test tubes. The incubation mixture consists of (1) 100 μl of human renin in buffer A (0.1M sodium phosphate solution, pH 7.4, containing 0.1% bovine serum albumin, 0.1% sodium azide and 1 mM ethylenediaminetetraacetic acid), sufficient for a renin activity of 2-3 ng of angiotensin I/ml/hr.; (2) 145 μl of buffer A; (3) 30 μl of 10 μM human tetradecapeptide renin substrate (hTD) in 10 mM hydrochloric acid; (4) 15 μl of dimethyl sulphoxide with or without inhibitor and (5) 10 μl of a 0.03 molar solution of hydroxyquinoline sulphate in water.
The samples are incubated for three hours at 37° C. or 4° C. in triplicate. 2×100 μl samples per experimental test tube are used in order to measure the production of angiotensin I via RIA (standard radioimmunoassay; clinical assay solid phase kit). Cross reactivities of the antibody used in the RIA are: angiotensin I 100%; angiotensin II 0.0013%; hTD (angiotensin I-Val-Ile-His-Ser-OH) 0.09%. The production of angiotensin I is determined by the difference between the experiment at 37° C. and that at 4° C.
The following controls are carried out:
(a) Incubation of hTD samples without renin and without inhibitor at 37° C. and 4° C. The difference between these two values gives the base value of the angiotensin I production.
(b) Incubation of hTD samples with renin, but without inhibitor at 37° C. and 4° C. The difference between these values gives the maximal value of angiotensin I production.
In each sample the base value of the angiotensin I production is subtracted from the angiotensin I production which is determined. The difference between the maximal value and the base value gives the value of the maximal substrate hydrolysis (=100%) by renin.
The results are given as IC50 values which denote that concentration of the inhibitor at which the enzymatic activity is inhibited by 50%. The IC50 values are determined from a linear regression curve from a logit-log plot.

CCC(C)c1nc(-c2cccnc2)cn2c(C(=O)N[C@@H](CC3CCCCC3)[C@@H](O)[C@@H](O)C3CC3)nnc12 (mixture of isomers) [F, N-[(1S,2R,3S)-1-(cyclohexylmethyl)-3-cyclopropyl-2,3-dihydroxypropyl]-8-[(RS)-1-methylpropyl]-6-(3-pyridyl)-s-triazolo[4,3-a]pyrazine-3-carboxamide]
IC50: 0.011 µM

CCCc1nc(-c2cccnc2)cn2c(C(C(=O)N[C@@H](CC3CCCCC3)[C@@H](O)[C@@H](O)C3CC3)c3cccnc3)nnc12 (single isomer, unassigned) [A, (R or S)-N-[(1S,2R,3S)-1-(Cyclohexylmethyl)-3-cyclopropyl-2,3-dihydroxypropyl]-8-propyl-α,6-bis(3-pyridyl)-s-triazolo[4,3-a]pyrazine-3-acetamide]
IC50: 0.061 µM

CC(C)c1nc(-c2cccnc2)cn2c(C(Cc3c[nH]cn3)C(=O)N[C@@H](CC3CCCCC3)[C@@H](O)[C@@H](O)C3CC3)nnc12 (single isomer, unassigned) [B, (R or S)-N-[(1S,2R,3S)-1-(cyclohexylmethyl)-3-cyclopropyl-2,3-dihydroxypropyl]-8-isopropyl-α-(imidazol-4-ylmethyl)-6-(3-pyridyl)-s-triazolo[4,3-a]pyrazine-3-acetamide]
IC50: 0.043 µM

CC(C)Cc1nc(-c2cccnc2)cn2c(C(Cc3cnc[nH]3)C(=O)N[C@@H](CC3CCCCC3)[C@@H](O)[C@@H](O)C3CC3)nnc12 (single isomer, unassigned) [C]
IC50: 0.042 µM

CCCc1nc(-c2cccnc2)cn2c(C(Cc3cccnc3)C(=O)N[C@@H](CC3CCCCC3)[C@@H](O)[C@@H](O)CC(C)C)nnc12 (single isomer, unassigned) [D, (R or S)-N-[(1S,2R,3S)-1-(cyclohexylmethyl)-2,3-dihydroxy-5-methylhexyl]-8-propyl-6-(3-pyridyl)-α-(3-pyridylmethyl)-s-triazolo[4,3-a]pyrazine-3-acetamide]
IC50: 0.057 µM

CCC(C)c1nc(-c2cccnc2)cn2c(C(Cc3cccnc3)C(=O)N[C@@H](CC3CCCCC3)[C@@H](O)[C@@H](O)C3CC3)nnc12 (single isomer, unassigned) [E, (S or R)-N-[(1S,2R,3S)-1-(cyclohexylmethyl)-3-cyclopropyl-2,3-dihydroxypropyl]-8-[(RS)-1-methylpropyl]-α-(3-pyridylmethyl)-6-(3-pyridyl)-s-triazolo[4,3-a]pyrazine-3-acetamide]
IC50: 0.048 µM
